From PubChem BioAssay (NCI) come the findings set out here.

Structures are written as SMILES. “And” between values parts separate entries of the source, which are not always exact repeats. Equal values may be shown once.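 96-well plates; 48 h exposure; 5 concentrations. Endpoints by linear interpolation between flanking doses. Not reached: highest tested concentration assigned. The concentration for 50% growth inhibition is given as GI50. TGI marks complete inhibition of growth.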

This test has as its system MDA-MB-468 breast. The experiment in a line: NCI anticancer screen, dose series, 48 h.

For `COc1ccc(NC(=O)c2sc3nc4c(cc3c2N)CCCC4)cc1`, the GI50 is 481 nM and the TGI came out at 96.4 µM.
Taken in the same sequence, the figures for `COc1ccc2[nH]c(-c3ccccc3)cc2c1` were 47000 nM and greater than 100 µM.
Taken in the same sequence, the figures for `O=C(/C=C/c1cn(-c2ccccc2)nc1-c1ccc([N+](=O)[O-])cc1)c1ccc(Cl)cc1` were 2910 nM and greater than 100 µM.
Taken in the same sequence, the figures for `C1=C2CNCC3=Cc4ccc5ccccc5c4OC23Oc2c1ccc1ccccc21` were 2060 nM and 7.55 µM.
Consider `COc1ccc(-c2nc3c(c(=O)n2C(C)=O)C(c2ccc(Cl)cc2)c2sc4c(Cl)cccc4c2O3)cc1` (stereo not given), for which the GI50 is 234 nM and the TGI is 0.571 µM.
Regarding `Fc1c[c-]c(-c2ccccn2)c(F)c1.[CH3-].[Pt+2].c1ccc(P(C[PH+](c2ccccc2)c2ccccc2)c2ccccc2)cc1`, the GI50 was 325 nM and the TGI turned out to be 0.946 µM.
Taken in the same sequence, the figures for `COc1ccc(-c2cc(/C=C/C(=O)c3cc(OC)c(OC)c(OC)c3)[nH]n2)cc1OC` were 1330 nM and 3.27 µM.
In the same order, the values of `O=c1oc2ccc(F)cc2c(=O)n1-c1ccc(Br)cc1F` are 1530 nM and 5.49 µM.
Turning to `COc1cc2cc(Oc3ccc(NC(=O)c4cccc5c4OCCO5)cc3)c(C)nc2cc1OC`, the GI50 is 2930 nM and the TGI was 48.7 µM.
Regarding `CCNC(=O)Oc1ccc(/C(=C(/C)c2ccc(OC)cc2)c2ccc(OCCN3CCCCCC3)cc2)cc1`, the GI50 is 2050 nM and the TGI worked out at 8.09 µM.
For `Nc1ccn([C@@H]2C(F)=C(CO)[C@@H](O)[C@H]2O)c(=O)n1`, the GI50 is 31200 nM and the TGI is greater than 100 µM.
As for `Cc1cc(NC(=O)NC(=O)c2ccccc2N(C)C)ccc1Oc1ncc(Br)cn1`, the GI50 was 490 nM and the TGI is greater than 100 µM.
`c1ccc(CC(NCCNC(Cc2ccccc2)c2ccccc2)c2ccccc2)cc1` (stereo not given): the GI50 is 255 nM and the TGI came out at 0.745 µM.
Taken in the same sequence, the figures for `Oc1[nH]c2ccccc2c1/C=c1/cc2c(c(-c3ccc(C(F)(F)F)cc3)n1)=Nc1ccccc1-2` were 3820 nM and 16.1 µM.
In the same order, the values of `CCO/C=N/C1=C(C#N)C(c2ccc(Cl)cc2)c2sc3c(CC)cccc3c2O1` (stereo not given) are 911 nM and 11 µM.
As to `CC[C@H](C)[C@H](NC(=O)[C@H]1CCCCN1C)C(=O)N(C)[C@H](C[C@@H](OC(C)=O)c1nc(C(=O)N[C@@H](Cc2ccccc2)C[C@H](C)C(=O)OC)cs1)C(C)C`, the TGI stood at 4.45 µM.
On to `O=C(Nc1ccc(Cl)cc1)Nc1ccccc1CNc1nc(Nc2ccc(OCCN3CCCC3)cc2)ncc1Cl`, for which the GI50 was 998 nM and the TGI was determined as 2.28 µM.
On to `O=C(CCN1CCCC1)Nc1ccc2c(Nc3ccccc3)c3ccccc3nc2c1`, for which the GI50 was 182 nM and the TGI worked out at 1.6 µM.
In the case of `CN(C)CCCN1c2ccccc2Sc2ccc(Cl)cc21`, the GI50 is 1670 nM and 1810 nM; the TGI was 3.54 µM and 4.62 µM.
Turning to `COc1cc2nnn3c4ncccc4c(N=O)c3c2cc1OC`, the GI50 is 156 nM and the TGI is 1.09 µM.
Taken in the same sequence, the figures for `COC(=O)[C@H](Cc1ccccc1)NC(=O)c1csc([C@@H](C[C@H](C(C)C)N(C)C(=O)[C@@H](NC(=O)[C@H]2CCCN2C)C2CC2)OC(C)=O)n1` were 153 nM and greater than 33.3 µM.
Taken in the same sequence, the figures for `COc1ccccc1/C=C\C(=O)c1ccccc1` were 3970 nM and 19.1 µM.
In the same order, the values of `CN(C)C/C=C/C(=O)Nc1ccc(C(=O)N2CCC[C@@H](Nc3ncc(Cl)c(-c4c[nH]c5ccccc45)n3)C2)cc1` are 24.9 nM and 0.0722 µM.
Regarding `CCCNC(=O)CCC(C)[C@H]1CCC2C3C(C[C@H](OC(C)=O)[C@@]21C)[C@@]1(C)CCC2(C[C@H]1C[C@H]3OC(C)=O)OOC1(CCCCC1)OO2` (stereo not given in full), the GI50 is 1890 nM and the TGI was found to be 6.77 µM.
Taken in the same sequence, the figures for `CCc1cccc(CC)c1/C=C/c1cncc(C(=O)NC)c1` were 4030 nM and 20.6 µM.
Taken in the same sequence, the figures for `COc1cc(-n2cc(-c3cc(O)c(C/C=C(\C)CCC=C(C)C)c(O)c3)nn2)cc2c1O[C@]1(C)CC[C@@H](O)C(C)(C)[C@H]1C2` were 880 nM and 4.89 µM.
Turning to `NC(=O)c1cc(I)ccc1NC(=O)COc1ccccc1`, the GI50 is 311 nM.
On to `C[C@@H]1C/C=C\C(=O)O[C@H](/C=C/C#C/C=C/C(C)(C)[C@@H](O)c2cccc(O)c2Br)[C@@H](C)/C=C/[C@H](C)C[C@H](OC(N)=O)C1`, for which the GI50 was 61.1 nM and the TGI was found to be 17.8 µM.
As to `CN(C)CCCC1(c2ccc(F)cc2)OCc2cc(-c3cncc4ccccc34)ccc21` (stereo not given), the GI50 was 1550 nM and the TGI was found to be 3.19 µM.
Taken in the same sequence, the figures for `Nc1ncnc2c1c(-c1ccc(Oc3ccccc3)cc1)nn2C[C@@H]1SSC[C@@H]1O` were 400 nM and 2.19 µM.
In the same order, the values of `Cc1n(Cc2ccc3ccccc3c2)c(Cl)c(Cl)[n+]1Cc1ccc2ccccc2c1` are 1090 nM and 2.92 µM.
`O=C1C=C(N2CCN(c3ccccn3)CC2)C(=O)c2c(O)ccc(O)c21`: the GI50 is 2750 nM.
Regarding `Cn1cc(CO)c2ccccc21`, the GI50 is 10500 nM and the TGI came to 48.7 µM.
Regarding `CCCCCCOc1ccc(C(=N)N(CCCC)CCCC)c2ccccc12`, the GI50 is 590 nM and the TGI was found to be 2.01 µM.
Taken in the same sequence, the figures for `O=C(Nc1ccccc1O)c1ccc(CNC(=O)c2ccsc2Nc2ccnc(C(F)(F)F)c2)cc1` were 1430 nM and 3.53 µM.
As to `COc1ccc(C(=O)C[C@]2(O)C(=O)Nc3c(Cl)ccc(Cl)c32)cc1`, the GI50 was 395 nM and the TGI was greater than 67.1 µM.
On to `CC(=O)Oc1ccc(C2(c3ccc(OC(C)=O)cc3)C(=O)Nc3ccccc32)cc1`, for which the GI50 is 68.2 nM and 73.8 nM; the TGI was 40.8 µM and 91 µM.
Take `O=C(Cc1ccc(/C=C/C(=O)c2ncc[nH]2)cc1)Nc1ccc(C(F)(F)F)cc1`: the GI50 was 1770 nM and the TGI was found to be 6.84 µM.
As to `CCCn1cnc2c(SCc3ccccc3)nc(N)nc21`, the GI50 was 23600 nM and the TGI is greater than 100 µM.
Taken in the same sequence, the figures for `Cc1cc(=O)oc2cc(OCCn3c(C)nn(-c4ccc(Cl)cc4)c3=O)ccc12` were 2690 nM and 57.6 µM.
Regarding `CCC(=O)c1cc([N+](=O)[O-])c(Br)s1`, the GI50 is 1920 nM and the TGI came to 3.69 µM.
As for `Cn1cnc([N+](=O)[O-])c1Sc1nc(N)nc2nc[nH]c12`, the GI50 is 884 nM and the TGI was 6.11 µM.
In the same order, the values of `COc1ccc2cc(-c3c(-c4ccncc4)nc(-c4ccc(S(C)=O)cc4C)n3C)ccc2c1` (stereo not given) are 9070 nM and greater than 25 µM.
Taken in the same sequence, the figures for `CN(C)C(=O)SC1=C(c2c(Cl)cccc2Cl)C(=O)c2ccccc21` were 1970 nM and 4.15 µM.
